In ChEMBL document CHEMBL1139445, “Synthesis of potent and selective 2-azepanone inhibitors of human tryptase” (Bioorg Med Chem Lett, 2004):
Where “and” joins values, the source holds several entries; their conditions need not be identical. Identical values can stand only once.

Tests used:
Tryptase = Tryptase (Homo sapiens, UniProt Q9BZJ3+Q15661+Q9NRR2); assay: Inhibition of human tryptase.; format: protein assay
[1] = target: Urokinase-type plasminogen activator (Homo sapiens, UniProt P00749); assay: Compound was tested for inhibition of human urokinase-type plasminogen activator
Serine protease 1 = Serine protease 1 (Homo sapiens, UniProt P07477); assay: Compound was tested for inhibition of human trypsin; design: reference not given here
Sequence of Serine protease 1 (P07477 whole entry): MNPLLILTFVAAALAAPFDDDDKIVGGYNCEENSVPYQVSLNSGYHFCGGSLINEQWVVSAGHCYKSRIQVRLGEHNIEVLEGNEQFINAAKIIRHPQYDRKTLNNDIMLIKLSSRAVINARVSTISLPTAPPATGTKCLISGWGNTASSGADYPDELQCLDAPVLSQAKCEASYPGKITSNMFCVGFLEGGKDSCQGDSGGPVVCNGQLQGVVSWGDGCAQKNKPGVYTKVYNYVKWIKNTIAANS

SMILES | IC50 (Tryptase) | selectivity ratio [1] | selectivity ratio (Serine protease 1)
NCc1cccc(NC(=O)CN2CCCCC(NC(=O)CC(c3ccccc3)c3ccccc3)C2=O)c1 (centres undefined) | 0.2 µM | > 170 | > 170
NCc1cccc(NC(=O)CN2CCCCC(NC(=O)CCCCc3ccccc3)C2=O)c1 (centres undefined) | 2.9 µM | – | –
NCc1cccc(NC(=O)CN2CCCCC(NC(=O)c3ccc(Cc4ccccc4)cc3)C2=O)c1 (centres undefined) | 0.98 µM | – | –
NCc1ccc(NC(=O)CN2CCCCC(NC(=O)c3ccc(-c4ccccc4)cc3)C2=O)cc1 (centres undefined) | 3.6 µM | – | –
COc1ccc(CN)cc1NC(=O)CN1CCCCC(NC(=O)c2ccc(-c3ccccc3)cc2)C1=O (centres undefined) | 0.89 µM | – | –
NCc1cccc(NC(=O)CN2CCCCC(NC(=O)c3ccc(C4CCCCC4)cc3)C2=O)c1 (centres undefined) | 0.98 µM | – | –
Cc1ccc(CN)cc1NC(=O)CN1CCCCC(NC(=O)c2ccc(-c3ccccc3)cc2)C1=O (centres undefined) | 0.074 µM | > 450 | > 450
NCc1cccc(NC(=O)CN2CCCCC(NC(=O)COc3ccc4ccccc4c3)C2=O)c1 (centres undefined) | 4.6 µM | – | –
CCN(CC)Cc1cccc(NC(=O)CN2CCCCC(NC(=O)c3ccc(-c4ccccc4)cc3)C2=O)c1 (centres undefined) | > 33 µM | – | –
NCc1cccc(NC(=O)CN2CCCCC(NC(=O)c3cnc4ccccc4c3)C2=O)c1 (centres undefined) | 15 µM | – | –
NCc1ccc(Cl)c(NC(=O)CN2CCCCC(NC(=O)c3ccc(-c4ccccc4)cc3)C2=O)c1 (centres undefined) | 0.038 µM | > 870 | 360
CNCc1cccc(NC(=O)CN2CCCCC(NC(=O)c3ccc(-c4ccccc4)cc3)C2=O)c1 (centres undefined) | > 33 µM | – | –
CCc1ccc(C(=O)NC2CCCCN(CC(=O)Nc3cccc(CN)c3)C2=O)cc1 (centres undefined) | 4.6 µM | – | –
NCCc1ccc(NC(=O)CN2CCCCC(NC(=O)c3ccc(-c4ccccc4)cc3)C2=O)cc1 (centres undefined) | 11 µM | – | –
NCc1cccc(NC(=O)CN2CCCCC(NC(=O)c3ccc(-c4ccc(Cl)c(Cl)c4)cc3)C2=O)c1 (centres undefined) | 2.1 µM | – | –
NCc1cccc(NC(=O)CN2CCCCC(NC(=O)Cc3ccc(-c4ccccc4)cc3)C2=O)c1 (centres undefined) | 5.2 µM | – | –
CCc1ccc(-c2ccc(C(=O)NC3CCCCN(CC(=O)Nc4cccc(CN)c4)C3=O)cc2)cc1 (centres undefined) | 2.9 µM | – | –
NC(=O)c1cccc(NC(=O)CN2CCCCC(NC(=O)c3ccc(-c4ccccc4)cc3)C2=O)c1 (centres undefined) | > 33 µM | – | –
Cc1ccc(-c2ccc(C(=O)NC3CCCCN(CC(=O)Nc4cccc(CN)c4)C3=O)cc2)cc1 (centres undefined) | 1.3 µM | – | –

Continued, in another order:

IC50 (Tryptase) | SMILES | selectivity ratio [1] | selectivity ratio (Serine protease 1)
13 µM | NCc1cccc(CNC(=O)CN2CCCCC(NC(=O)c3ccc(-c4ccccc4)cc3)C2=O)c1 (centres undefined) | – | –
12 µM | NCC1CCC(NC(=O)CN2CCCCC(NC(=O)c3ccc(-c4ccccc4)cc3)C2=O)CC1 (centres undefined) | – | –
> 33 µM | NC1CCCc2ccc(NC(=O)CN3CCCCC(NC(=O)c4ccc(-c5ccccc5)cc4)C3=O)cc21 (centres undefined) | – | –
> 33 µM | NCCCCNC(=O)CN1CCCCC(NC(=O)c2ccc(-c3ccccc3)cc2)C1=O (centres undefined) | – | –
> 33 µM | NCCCCCCNC(=O)CN1CCCCC(NC(=O)c2ccc(-c3ccccc3)cc2)C1=O (centres undefined) | – | –
12 µM | NCCCCCNC(=O)CN1CCCCC(NC(=O)c2ccc(-c3ccccc3)cc2)C1=O (centres undefined) | – | –
> 33 µM | NCc1ccccc1NC(=O)CN1CCCCC(NC(=O)c2ccc(-c3ccccc3)cc2)C1=O (centres undefined) | – | –
> 33 µM | O=C(CN1CCCCC(NC(=O)c2ccc(-c3ccccc3)cc2)C1=O)NCC1CCNCC1 (centres undefined) | – | –
> 33 µM | O=C(CN1CCCCC(NC(=O)c2ccc(-c3ccccc3)cc2)C1=O)Nc1ccc2c(c1)CNCC2 (centres undefined) | – | –
> 33 µM | Nc1cccc(CNC(=O)CN2CCCCC(NC(=O)c3ccc(-c4ccccc4)cc3)C2=O)c1 (centres undefined) | – | –
0.25 µM and > 0.25 µM | NCc1cccc(NC(=O)CN2CCCCC(NC(=O)c3ccc(-c4ccccc4)cc3)C2=O)c1 (centres undefined) | > 130 | > 130
> 33 µM | Nc1ccc(CNC(=O)CN2CCCCC(NC(=O)c3ccc(-c4ccccc4)cc3)C2=O)cc1 (centres undefined) | – | –
